Experiment [1] has as its target Eukaryotic translation initiation factor 4E (Mus musculus, UniProt P63073). Description: eIF4E–eIF4G protein interaction inhibitors, dose response, biochemical, TR-FRET (AID 855).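 Further: potency for disrupting eIF4E binding to eIF4GI seen as loss of FRET.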 It counts as functional.
Experiment [2] deals with DNA dC->dU-editing enzyme APOBEC-3G (Homo sapiens, UniProt Q9HC16). In kind it is functional.
Experiment [3] has as its target DNA dC->dU-editing enzyme APOBEC-3A (Homo sapiens, UniProt P31941). Put plainly: Dose Response confirmation of small molecule APOBEC3A DNA Deaminase Inhibitors via a fluorescence-based single-stranded DNA deaminase assay. [Related pubchem assays (depositor defined):AID493011, AID493024]. In kind it is functional.
The target of a further experiment is Keap1/Nrf2 (Homo sapiens, UniProt Q14145). Put plainly: Keap1-Nrf2 protein-protein interaction inhibitors, dose response, biochemical, fluorescence polarization, cherry-picked samples (AID 588683). Background: Fluorescence polarisation rises when a labelled molecule tumbles more slowly, as on binding a larger partner.
Experiment [4] addresses T1, RNA-binding protein pos-1 (Caenorhabditis elegans, UniProt G5EF15).
T1 sequence (G5EF15 whole entry): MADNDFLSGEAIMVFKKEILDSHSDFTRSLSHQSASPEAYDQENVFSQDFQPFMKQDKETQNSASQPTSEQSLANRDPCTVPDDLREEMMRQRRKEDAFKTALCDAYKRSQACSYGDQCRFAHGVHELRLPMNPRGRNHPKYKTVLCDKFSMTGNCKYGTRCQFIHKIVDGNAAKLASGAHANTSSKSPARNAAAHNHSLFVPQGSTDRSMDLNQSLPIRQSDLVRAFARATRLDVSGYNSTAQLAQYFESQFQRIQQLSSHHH
Put plainly: inhibitors of POS-1/mex-3 RNA binding, dose response, biochemical, fluorescence polarization (AID 1964).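 Further: purified POS-1 fused to maltose binding protein made in E. coli; potency of compounds blocking POS-1 binding to fluorescent RNA.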

The target in experiment [5] is T2, Zinc finger protein mex-5 (Caenorhabditis elegans, UniProt Q9XUB2).
T2 sequence (Q9XUB2 whole entry): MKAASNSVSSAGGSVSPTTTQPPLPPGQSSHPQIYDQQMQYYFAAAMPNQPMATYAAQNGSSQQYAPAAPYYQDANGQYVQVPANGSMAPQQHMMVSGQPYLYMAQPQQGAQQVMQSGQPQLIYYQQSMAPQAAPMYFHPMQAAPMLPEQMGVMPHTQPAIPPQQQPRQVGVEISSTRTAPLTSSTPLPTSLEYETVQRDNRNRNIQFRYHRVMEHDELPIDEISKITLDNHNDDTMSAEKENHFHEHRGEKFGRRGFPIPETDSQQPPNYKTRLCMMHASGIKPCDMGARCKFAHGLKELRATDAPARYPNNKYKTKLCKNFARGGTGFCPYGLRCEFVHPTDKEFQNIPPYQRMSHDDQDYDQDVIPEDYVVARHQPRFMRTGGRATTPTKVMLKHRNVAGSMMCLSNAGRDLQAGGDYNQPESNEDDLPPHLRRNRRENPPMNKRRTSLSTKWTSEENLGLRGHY
Description: MEX-5/TCR-2 RNA interaction inhibitors, dose response, biochemical, C. elegans, fluorescence polarization (AID 1960).

The next experiment has as its target T3, Protein RecA (Mycobacterium tuberculosis, UniProt P9WHJ3).
T3 sequence (P9WHJ3 whole entry): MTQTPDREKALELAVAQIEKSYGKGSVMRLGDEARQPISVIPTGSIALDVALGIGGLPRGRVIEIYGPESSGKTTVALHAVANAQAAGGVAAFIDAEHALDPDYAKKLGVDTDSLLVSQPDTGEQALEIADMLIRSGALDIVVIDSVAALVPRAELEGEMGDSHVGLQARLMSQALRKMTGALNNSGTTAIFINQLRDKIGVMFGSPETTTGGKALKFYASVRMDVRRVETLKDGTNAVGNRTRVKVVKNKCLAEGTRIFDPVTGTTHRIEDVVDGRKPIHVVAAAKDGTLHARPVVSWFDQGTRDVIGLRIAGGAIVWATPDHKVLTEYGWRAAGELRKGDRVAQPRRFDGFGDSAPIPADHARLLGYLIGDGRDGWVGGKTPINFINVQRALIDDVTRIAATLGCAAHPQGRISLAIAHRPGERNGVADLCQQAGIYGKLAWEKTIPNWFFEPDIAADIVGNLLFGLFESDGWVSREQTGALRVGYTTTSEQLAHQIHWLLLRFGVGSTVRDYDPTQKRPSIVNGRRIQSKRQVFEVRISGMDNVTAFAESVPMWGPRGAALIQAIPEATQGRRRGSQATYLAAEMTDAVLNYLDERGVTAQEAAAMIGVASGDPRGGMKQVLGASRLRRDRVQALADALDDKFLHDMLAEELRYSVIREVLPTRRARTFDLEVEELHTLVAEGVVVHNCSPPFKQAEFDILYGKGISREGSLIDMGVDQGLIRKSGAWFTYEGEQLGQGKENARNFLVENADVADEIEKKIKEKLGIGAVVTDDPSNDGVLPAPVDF
Put plainly: Fluorescence Cell-Free Homogeneous Dose Retest to Identify Inhibitors of RecA-Intein Splicing Activity. [Related pubchem assays (depositor defined):AID2097, AID2223, AID489010, AID492950]. In kind it is functional.

The target of a further experiment is T4, Hexokinase HKDC1 (Homo sapiens, UniProt Q2TB90).
T4 sequence (Q2TB90 whole entry): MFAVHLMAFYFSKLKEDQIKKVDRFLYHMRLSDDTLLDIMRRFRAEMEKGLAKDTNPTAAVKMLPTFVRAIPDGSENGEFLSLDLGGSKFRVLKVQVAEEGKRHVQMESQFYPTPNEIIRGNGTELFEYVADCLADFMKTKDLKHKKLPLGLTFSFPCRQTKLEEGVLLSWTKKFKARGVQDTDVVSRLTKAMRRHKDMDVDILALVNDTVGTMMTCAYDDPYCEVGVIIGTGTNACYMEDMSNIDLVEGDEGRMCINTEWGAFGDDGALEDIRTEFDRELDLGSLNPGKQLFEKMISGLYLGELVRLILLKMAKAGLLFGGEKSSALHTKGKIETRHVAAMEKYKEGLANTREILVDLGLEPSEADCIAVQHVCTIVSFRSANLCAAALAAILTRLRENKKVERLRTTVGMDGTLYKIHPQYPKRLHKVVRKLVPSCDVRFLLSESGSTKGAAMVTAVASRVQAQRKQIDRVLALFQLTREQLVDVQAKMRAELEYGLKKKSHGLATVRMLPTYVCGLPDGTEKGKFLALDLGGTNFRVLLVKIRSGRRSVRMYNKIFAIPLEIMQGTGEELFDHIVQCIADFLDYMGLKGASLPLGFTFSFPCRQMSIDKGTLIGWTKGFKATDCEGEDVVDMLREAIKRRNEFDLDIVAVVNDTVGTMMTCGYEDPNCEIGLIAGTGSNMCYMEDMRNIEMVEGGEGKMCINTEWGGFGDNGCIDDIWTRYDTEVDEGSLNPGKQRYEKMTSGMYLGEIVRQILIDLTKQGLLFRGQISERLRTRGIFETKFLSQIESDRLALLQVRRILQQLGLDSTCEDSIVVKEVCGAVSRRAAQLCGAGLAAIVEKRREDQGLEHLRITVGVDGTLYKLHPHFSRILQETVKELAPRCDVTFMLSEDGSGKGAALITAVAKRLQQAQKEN
Description: HKDC1 hexokinase inhibitors, dose response, biochemical, W721R variant (AID 504729). It counts as functional.

Experiment [6] has as its target T5, Replicative DNA helicase DnaB (Mycobacterium tuberculosis, UniProt P9WMR3).
T5 sequence (P9WMR3 whole entry): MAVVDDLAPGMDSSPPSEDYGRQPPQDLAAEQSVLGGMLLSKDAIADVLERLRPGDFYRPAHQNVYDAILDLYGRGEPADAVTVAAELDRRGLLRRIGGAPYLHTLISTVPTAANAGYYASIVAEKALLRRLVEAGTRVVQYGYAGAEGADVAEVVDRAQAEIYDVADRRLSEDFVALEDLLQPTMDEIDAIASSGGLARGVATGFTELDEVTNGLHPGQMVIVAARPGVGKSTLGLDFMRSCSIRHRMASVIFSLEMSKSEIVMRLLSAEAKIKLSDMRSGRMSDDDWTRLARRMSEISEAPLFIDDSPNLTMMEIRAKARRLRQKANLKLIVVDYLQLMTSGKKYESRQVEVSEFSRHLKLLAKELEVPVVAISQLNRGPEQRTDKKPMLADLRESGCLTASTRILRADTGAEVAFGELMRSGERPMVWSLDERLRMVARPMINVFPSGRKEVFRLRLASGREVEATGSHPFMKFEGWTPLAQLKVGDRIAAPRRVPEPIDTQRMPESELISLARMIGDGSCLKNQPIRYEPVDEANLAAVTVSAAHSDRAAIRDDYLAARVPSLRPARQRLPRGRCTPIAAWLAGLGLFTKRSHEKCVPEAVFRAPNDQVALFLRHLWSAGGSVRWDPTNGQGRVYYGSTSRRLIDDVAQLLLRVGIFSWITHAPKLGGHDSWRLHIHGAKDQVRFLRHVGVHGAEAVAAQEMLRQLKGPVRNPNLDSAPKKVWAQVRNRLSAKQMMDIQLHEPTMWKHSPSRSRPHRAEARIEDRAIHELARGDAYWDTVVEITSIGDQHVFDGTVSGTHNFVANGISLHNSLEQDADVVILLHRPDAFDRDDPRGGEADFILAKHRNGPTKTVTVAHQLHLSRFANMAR
Put plainly: DnaB intein splicing inhibitors, dose response, biochemical, cell-free fluorescence (AID 449749). In kind it is functional.

The target in another experiment is Tumor necrosis factor (Homo sapiens, UniProt P01375). Description: TNFa-triggered NF-kB activation inhibitors, SAR follow-up, cell-based, revised (AID 2337). It counts as functional.
For a further experiment, the system named is HEK293. Description: cells. As to conditions: Homo sapiens.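 Further: cells exposed to compound for 14 hours overnight before viability readout.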

Eleven molecules from ChEMBL document CHEMBL1201862, “PubChem BioAssay data set” (2004) can be followed below.

Activity calls are given as the source filed them.

DNA dC->dU-editing enzyme APOBEC-3G, sequence (Q9HC16 whole entry): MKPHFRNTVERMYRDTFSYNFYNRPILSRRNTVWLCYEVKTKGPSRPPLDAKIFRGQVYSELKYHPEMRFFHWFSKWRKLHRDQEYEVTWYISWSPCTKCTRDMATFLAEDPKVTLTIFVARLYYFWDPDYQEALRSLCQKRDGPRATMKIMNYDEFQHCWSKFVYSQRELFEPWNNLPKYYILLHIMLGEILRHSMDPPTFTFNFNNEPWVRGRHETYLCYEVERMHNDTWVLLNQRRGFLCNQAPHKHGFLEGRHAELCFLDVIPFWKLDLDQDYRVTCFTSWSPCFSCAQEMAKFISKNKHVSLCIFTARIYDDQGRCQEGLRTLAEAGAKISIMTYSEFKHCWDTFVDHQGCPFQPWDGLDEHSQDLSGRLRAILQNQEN
DNA dC->dU-editing enzyme APOBEC-3A, sequence (P31941 whole entry): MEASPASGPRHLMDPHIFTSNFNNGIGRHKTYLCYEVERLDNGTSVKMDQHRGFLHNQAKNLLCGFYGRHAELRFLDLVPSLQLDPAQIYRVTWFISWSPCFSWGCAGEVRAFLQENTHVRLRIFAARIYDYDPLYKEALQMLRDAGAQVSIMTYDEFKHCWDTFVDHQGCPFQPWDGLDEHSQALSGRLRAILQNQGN
Keap1/Nrf2, sequence (Q16236 whole entry): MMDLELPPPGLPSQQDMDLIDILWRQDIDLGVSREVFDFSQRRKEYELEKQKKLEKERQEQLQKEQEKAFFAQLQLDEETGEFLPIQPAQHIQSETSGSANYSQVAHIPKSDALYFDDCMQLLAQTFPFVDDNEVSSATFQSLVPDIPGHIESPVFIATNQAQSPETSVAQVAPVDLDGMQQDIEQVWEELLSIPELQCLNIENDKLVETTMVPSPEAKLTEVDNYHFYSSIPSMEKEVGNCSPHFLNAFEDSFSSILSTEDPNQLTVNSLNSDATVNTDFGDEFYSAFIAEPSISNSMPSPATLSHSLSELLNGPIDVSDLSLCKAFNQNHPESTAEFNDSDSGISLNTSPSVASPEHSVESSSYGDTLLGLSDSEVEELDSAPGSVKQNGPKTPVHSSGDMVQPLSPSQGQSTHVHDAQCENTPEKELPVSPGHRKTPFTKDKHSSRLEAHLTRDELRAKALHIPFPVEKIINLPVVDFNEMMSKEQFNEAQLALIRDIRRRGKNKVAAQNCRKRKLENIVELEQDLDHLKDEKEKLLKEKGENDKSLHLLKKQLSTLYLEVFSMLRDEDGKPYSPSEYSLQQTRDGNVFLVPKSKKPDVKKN
Keap1/Nrf2, sequence (Q14145 whole entry): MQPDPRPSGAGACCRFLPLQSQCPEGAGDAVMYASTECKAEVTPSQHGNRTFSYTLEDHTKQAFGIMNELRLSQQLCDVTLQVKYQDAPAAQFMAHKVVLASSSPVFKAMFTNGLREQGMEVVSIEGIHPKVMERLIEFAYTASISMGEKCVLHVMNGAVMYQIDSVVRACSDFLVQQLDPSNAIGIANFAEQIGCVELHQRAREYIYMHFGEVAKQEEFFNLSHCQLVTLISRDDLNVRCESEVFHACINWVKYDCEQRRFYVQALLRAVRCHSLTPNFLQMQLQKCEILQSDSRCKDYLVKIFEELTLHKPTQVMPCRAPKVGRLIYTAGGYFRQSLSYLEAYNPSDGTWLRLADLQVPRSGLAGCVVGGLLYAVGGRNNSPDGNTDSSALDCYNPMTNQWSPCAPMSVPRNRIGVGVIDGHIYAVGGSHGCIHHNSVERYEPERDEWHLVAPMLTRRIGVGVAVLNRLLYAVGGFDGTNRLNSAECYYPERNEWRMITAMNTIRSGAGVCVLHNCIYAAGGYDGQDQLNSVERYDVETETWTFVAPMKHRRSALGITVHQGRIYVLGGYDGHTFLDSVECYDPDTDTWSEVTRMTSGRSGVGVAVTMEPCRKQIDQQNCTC
Eukaryotic translation initiation factor 4E, sequence (P63073 whole entry): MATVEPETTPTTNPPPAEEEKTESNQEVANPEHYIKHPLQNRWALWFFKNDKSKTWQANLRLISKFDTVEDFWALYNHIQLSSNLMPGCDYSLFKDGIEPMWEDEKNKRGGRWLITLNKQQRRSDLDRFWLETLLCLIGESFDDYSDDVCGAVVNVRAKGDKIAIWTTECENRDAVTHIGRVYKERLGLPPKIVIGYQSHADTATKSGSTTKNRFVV
Tumor necrosis factor, sequence (P01375 whole entry): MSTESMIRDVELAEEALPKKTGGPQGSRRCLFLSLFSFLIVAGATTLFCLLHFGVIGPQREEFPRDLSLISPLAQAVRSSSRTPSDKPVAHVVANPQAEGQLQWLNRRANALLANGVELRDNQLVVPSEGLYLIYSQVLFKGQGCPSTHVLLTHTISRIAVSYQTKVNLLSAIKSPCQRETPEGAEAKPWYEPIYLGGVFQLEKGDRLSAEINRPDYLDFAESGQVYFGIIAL

With `c1csc(-c2nn3c(Cn4cnc5ccccc54)nnc3s2)c1`, the figures for the IC50 (in the experiment “cells”; in [1]) were < 0.1 µM (active) and > 64 µM (inactive), respectively.
`O=C(Nc1ccccc1F)c1ccc(CSc2ncccn2)cc1`: the 50% inhibitory concentration (IC50) was 9.71 µM (active) in [2] and 4.88 µM (active) in experiment [3].
As to `N#C/C(=C\c1c[nH]c2ccccc12)C(=O)NCC1CCCO1` (stereo not given), the IC50 in experiment [2] is 5.05 µM (active); in experiment [3] it was 5.69 µM (active).
The like results for `CCOC(=O)C1CCN(C(=O)Cc2cccc3ccccc23)CC1` were, in that order, 5.83 µM (active) and 5.89 µM (active).
For `COc1ccc2nc3ccccc3nc2c1NC(=O)c1ccccc1Cl`, at Keap1/Nrf2, the AC50 is 29.2 µM (active). Also, the EC50 in [4] and in experiment [5] was > 300 µM (not active) in each case.
Turning to `CCOc1ccc(N(CC(=O)Nc2ccccc2)S(C)(=O)=O)cc1`, the results for the IC50 in experiment [2] and in experiment [3] were 4.76 µM (active) and 3.89 µM (active), respectively.
The like results for `C[n+]1cc(-c2ccccc2)n2c1CCCCC2` were, in that order, 2.3 µM (active) and 1.66 µM (active).
On to `CC(C)(C)c1c(Cl)c(O)c(-c2ccccc2)c(=O)n1-c1ccccc1`, for which the concentration for a half-maximal effect (EC50) on Protein RecA is 27.2 µM (active). For the same molecule, the IC50 at Hexokinase HKDC1 is 8.83 µM (active); in experiment [1], 14.1 µM (active). Moreover, the half-maximal activity concentration (AC50) in [6] is 20.1 µM (active).
`CSc1ccc(NC(=O)c2ccc(CN3CCCCC3)cc2)cc1`: the IC50 on Tumor necrosis factor is 19.6 µM (active); in the experiment on HEK293 it was > 20 µM (inactive).
In the case of `COc1ccc(Br)cc1CNCC1CCCO1` (stereo not given), the AC50 at Keap1/Nrf2 was > 52 µM (inactive).
For `CC1=C[C@@H]2c3cccc4[nH]cc(c34)C[C@H]2N(C)C1` [AGROCLAVINE], on Keap1/Nrf2, the AC50 was 38.4 µM (active). The EC50 in experiment [4] was 11.2 µM (active); in [5] it was 8.67 µM (inconclusive).

As a reminder, the IC50 is the concentration that inhibits the measured activity by half. In general, AC50 refers to the concentration at which the activity in the assay is half-maximal. One may read the EC50 as the concentration needed to bring the measured effect to its halfway point.
